Numbering of substitutions follows the chain as printed. pIC50, pKd: −log10 of the molar value.
Legend:
BRD4 = BRD4 (Homo sapiens, UniProt O60885); assay: In vitro AlphaScreen protein binding assay (competition with biotinylated JQ1)
Experimental: (§1) Assays were performed with minor modifications from the manufacturer's protocol (PerkinElmer, USA). All reagents were diluted in 50 mM HEPES, 150 mM NaCl, 0.1% w/v BSA, and 0.01% w/v Tween® 20 at pH 7.5 and allowed to equilibrate to room temperature prior to addition to plates. After addition of Alpha beads to master solutions, all subsequent steps were performed in low light conditions. […] After a 1000-rpm spin-down for 1 minute, 100 nL of the solutions of compounds of the invention in DMSO from stock plates were added by pin transfer using a Janus Workstation (PerkinElmer, USA). The streptavidin-coated donor beads (25 μg/ml final) were added as with previous solution in a 2×, 10 μL volume. Following this addition, the plates were sealed with foil to block light exposure and to prevent evaporation. The plates were spun down again at 1000 rpm for 1 minute. Next, the plates were incubated in the room with the plate reader (for temperature equilibration) for 1 hour prior to reading the assay. Signal is stable for up to 3 hours after donor bead addition.

[1] = system: BRD4-dependent Nut-Midline Carcinoma line 797; assay: Cell viability (ATPlite) in BRD4 dependant cell line 797; details: Homo sapiens, read-out: 797--EC50 (μM)
[2] = system: lung carcinoma cell line H2171; assay: Cellular IC50 in lung carcinoma cell line H2171; format: cell-based
Experimental: Cells (e.g., BRD4 dependant cells) were counted and adjusted to 60,000 cells/mL. Using a Biotek EL406, 50 μL of the cells in media were distributed into 384 well white plates from Thermo. Immediately after plating, compounds of the invention in DMSO were distributed to plates. For large plate sets, cells were returned to a 37° C. incubator while not in use. The compounds were added to plates using a 100 nL 384 well pin transfer manifold on a Janus workstation. Stocks were arrayed in 10 point quadruplicate dose response in DMSO stock in 384-well Greiner compound plates. After addition of the compounds, plates were incubated for three days in a 37° C. incubator. Cell viability was read out using ATPlite from Perkin Elmer. Plates were removed from the incubator and brought to room temperature prior to use. Lyophilized powder was resuspended in lysis buffer and diluted 1:2 with DI water. 25 μL of this solution was added to each well using the Biotek liquid handler. Plates were sealed with adherent aluminum seals prior to vortexing and spinning down at 1000 g for 1 minute. Plates were incubated for 15 minutes at room temperature before signal was read on an Envision Plate Reader.

CBP [3] = biological target: T1, CBP (Homo sapiens, UniProt Q92793); assay: In vitro AlphaScreen protein binding assay, CBP
Target sequence in this assay (Q92793 1085-1192 limits assumed): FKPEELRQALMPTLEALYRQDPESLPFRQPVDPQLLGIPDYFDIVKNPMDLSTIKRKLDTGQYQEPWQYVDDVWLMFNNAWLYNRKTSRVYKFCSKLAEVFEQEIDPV
Experimental: as §1

TRIM24(PHD Bromo.) = biological target: T2, TRIM24(PHD Bromo.) (Homo sapiens, UniProt O15164); assay: BromoScan selectivity panel (Kd); format: binding
T2 construct: TRIM24(PHD Bromo.)
T2 sequence (O15164 824-1006 limits assumed): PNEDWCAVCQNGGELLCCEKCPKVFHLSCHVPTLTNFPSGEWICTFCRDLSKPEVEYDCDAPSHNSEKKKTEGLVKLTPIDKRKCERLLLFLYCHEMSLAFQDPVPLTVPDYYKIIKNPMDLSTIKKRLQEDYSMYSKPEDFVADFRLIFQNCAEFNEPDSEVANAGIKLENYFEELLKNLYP

FALZ = FALZ (Homo sapiens, UniProt Q12830); assay: BromoScan selectivity panel (Kd); format: binding
CBP [4] = biological target: T1, CBP; assay: BromoScan selectivity panel (Kd)
Target sequence in this assay (Q92793 1081-1197 limits assumed): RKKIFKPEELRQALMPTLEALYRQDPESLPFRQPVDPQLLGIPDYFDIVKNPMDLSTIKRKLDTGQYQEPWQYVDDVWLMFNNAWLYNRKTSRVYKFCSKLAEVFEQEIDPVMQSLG

TAF1L(2) = biological target: T3, TAF1L(2) (Homo sapiens, UniProt Q8IZX4); assay: BromoScan selectivity panel (Kd); format: binding
T3 construct: TAF1L(2)
T3 sequence (Q8IZX4 1517-1626 limits assumed): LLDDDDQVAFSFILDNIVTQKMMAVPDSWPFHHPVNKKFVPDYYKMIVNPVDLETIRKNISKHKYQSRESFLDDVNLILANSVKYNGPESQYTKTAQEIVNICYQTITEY

EP300 = biological target: T4, EP300 (Homo sapiens, UniProt Q09472); assay: BromoScan selectivity panel (Kd); format: binding
T4 sequence (Q09472 1040-1161 limits assumed): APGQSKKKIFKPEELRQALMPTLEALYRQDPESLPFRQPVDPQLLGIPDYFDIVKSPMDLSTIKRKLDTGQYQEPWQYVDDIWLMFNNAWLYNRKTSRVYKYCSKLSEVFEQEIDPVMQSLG

BRDT(1) = biological target: T5, BRDT(1) (Homo sapiens, UniProt Q58F21); assay: BromoScan selectivity panel (Kd); format: binding
T5 construct: the bromodomain-containing protein is BRDT(1)

TAF1(2) = biological target: T6, TAF1(2) (Homo sapiens, UniProt P21675); assay: BromoScan selectivity panel (Kd); format: binding
T6 construct: TAF1(2)
T6 sequence (P21675 1519-1628 limits assumed): T3 sequence (Q8IZX4 1517-1626 limits assumed) with M46V, V51M, I102V, I107L

ATAD2B = biological target: T7, ATAD2B (Homo sapiens, UniProt Q9ULI0); assay: BromoScan selectivity panel (Kd); format: binding
T7 sequence (Q9ULI0 953-1085 limits assumed): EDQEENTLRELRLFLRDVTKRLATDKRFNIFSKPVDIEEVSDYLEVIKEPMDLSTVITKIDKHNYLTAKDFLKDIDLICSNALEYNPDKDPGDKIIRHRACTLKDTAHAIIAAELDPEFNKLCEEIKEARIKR

BRPF1 = biological target: T8, BRPF1 (Homo sapiens, UniProt P55201); assay: BromoScan selectivity panel (Kd); format: binding
T8 sequence (P55201 626-740 limits assumed): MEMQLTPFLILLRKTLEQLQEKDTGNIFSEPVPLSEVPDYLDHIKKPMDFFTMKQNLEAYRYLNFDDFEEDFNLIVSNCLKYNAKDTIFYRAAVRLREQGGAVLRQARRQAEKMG

TRIM33(PHD Bromo.) = biological target: T9, TRIM33(PHD Bromo.) (Homo sapiens, UniProt Q9UPN9); assay: BromoScan selectivity panel (Kd); format: binding
T9 construct: TRIM33(PHD, Bromo.); TRIM33(PHD Bromo.); fused on or other part: The vendor panel's detection tag or display handle
T9 sequence (Q9UPN9 1-1127): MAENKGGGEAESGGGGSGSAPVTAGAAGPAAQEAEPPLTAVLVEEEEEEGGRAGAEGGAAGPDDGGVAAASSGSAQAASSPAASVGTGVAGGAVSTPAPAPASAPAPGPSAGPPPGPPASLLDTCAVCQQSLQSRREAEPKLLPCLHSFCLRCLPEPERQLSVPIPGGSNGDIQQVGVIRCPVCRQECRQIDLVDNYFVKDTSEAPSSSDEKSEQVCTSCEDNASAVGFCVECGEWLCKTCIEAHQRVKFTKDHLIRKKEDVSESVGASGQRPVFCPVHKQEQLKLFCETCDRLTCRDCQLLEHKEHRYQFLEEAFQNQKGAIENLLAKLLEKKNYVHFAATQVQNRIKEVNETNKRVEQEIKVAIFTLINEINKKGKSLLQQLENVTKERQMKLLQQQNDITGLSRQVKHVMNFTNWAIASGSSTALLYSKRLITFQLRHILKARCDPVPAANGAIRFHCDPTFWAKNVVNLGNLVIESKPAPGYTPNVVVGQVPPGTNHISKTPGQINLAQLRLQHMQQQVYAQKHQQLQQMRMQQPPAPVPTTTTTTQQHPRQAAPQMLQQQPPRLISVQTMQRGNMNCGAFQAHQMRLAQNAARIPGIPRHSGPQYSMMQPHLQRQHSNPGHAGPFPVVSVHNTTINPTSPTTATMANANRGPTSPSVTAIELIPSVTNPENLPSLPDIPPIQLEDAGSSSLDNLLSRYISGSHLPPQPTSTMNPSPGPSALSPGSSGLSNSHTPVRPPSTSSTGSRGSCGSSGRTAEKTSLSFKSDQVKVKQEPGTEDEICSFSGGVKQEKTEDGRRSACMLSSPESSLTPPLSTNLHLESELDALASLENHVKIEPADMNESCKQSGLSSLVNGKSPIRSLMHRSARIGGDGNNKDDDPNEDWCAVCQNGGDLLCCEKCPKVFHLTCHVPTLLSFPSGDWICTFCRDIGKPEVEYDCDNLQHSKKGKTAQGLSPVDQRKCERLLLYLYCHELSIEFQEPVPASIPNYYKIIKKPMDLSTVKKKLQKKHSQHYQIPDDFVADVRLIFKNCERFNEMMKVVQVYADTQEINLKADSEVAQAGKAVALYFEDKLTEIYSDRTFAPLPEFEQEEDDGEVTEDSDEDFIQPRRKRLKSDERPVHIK

BRD9 = biological target: T10, BRD9 (Homo sapiens, UniProt Q9H8M2); assay: BromoScan selectivity panel (Kd); format: binding
T10 sequence (Q9H8M2 130-250 limits assumed): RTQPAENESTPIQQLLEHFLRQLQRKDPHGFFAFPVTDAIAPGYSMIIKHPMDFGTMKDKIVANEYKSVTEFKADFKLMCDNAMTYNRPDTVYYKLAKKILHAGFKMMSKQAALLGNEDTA

BRD1 = biological target: T11, BRD1 (Homo sapiens, UniProt O95696); assay: BromoScan selectivity panel (Kd); format: binding
T11 sequence (O95696 556-688 limits assumed): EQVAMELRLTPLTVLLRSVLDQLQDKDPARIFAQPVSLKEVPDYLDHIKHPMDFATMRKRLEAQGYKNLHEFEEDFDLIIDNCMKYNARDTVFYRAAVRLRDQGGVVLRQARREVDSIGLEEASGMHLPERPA

BAZ2A = biological target: T12, BAZ2A (Homo sapiens, UniProt Q9UIF9); assay: BromoScan selectivity panel (Kd); format: binding
T12 sequence (Q9UIF9 1796-1899 limits assumed): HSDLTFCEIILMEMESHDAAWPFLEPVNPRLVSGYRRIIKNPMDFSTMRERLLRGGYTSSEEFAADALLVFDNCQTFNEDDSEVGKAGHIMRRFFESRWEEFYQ

BRPF3 = biological target: T13, BRPF3 (Homo sapiens, UniProt Q9ULD4); assay: BromoScan selectivity panel (Kd); format: binding
T13 sequence (Q9ULD4 589-693 limits assumed): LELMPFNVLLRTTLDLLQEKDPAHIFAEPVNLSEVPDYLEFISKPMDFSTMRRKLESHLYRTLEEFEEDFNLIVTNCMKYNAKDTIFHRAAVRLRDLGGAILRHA

BAZ2B = biological target: T14, BAZ2B (Homo sapiens, UniProt Q9UIF8); assay: BromoScan selectivity panel (Kd); format: binding
T14 sequence (Q9UIF8 2054-2168 limits assumed): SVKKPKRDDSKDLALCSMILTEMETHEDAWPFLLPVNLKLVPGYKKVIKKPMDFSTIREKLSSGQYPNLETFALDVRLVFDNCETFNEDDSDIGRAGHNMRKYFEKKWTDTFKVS

ATAD2A = biological target: T15, ATAD2A (Homo sapiens, UniProt Q6PL18); assay: BromoScan selectivity panel (Kd); format: binding
T15 sequence (Q6PL18 981-1108 limits assumed): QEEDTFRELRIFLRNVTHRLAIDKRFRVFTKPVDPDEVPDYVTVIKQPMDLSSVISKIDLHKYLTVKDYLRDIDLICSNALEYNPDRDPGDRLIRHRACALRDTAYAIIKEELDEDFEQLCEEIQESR

BRDT(2) = BRDT(2) (Homo sapiens, UniProt Q58F21); assay: BromoScan selectivity panel (Kd); format: binding
WDR9(2) = biological target: T16, WDR9(2) (Homo sapiens, UniProt Q9NSI6); assay: BromoScan selectivity panel (Kd); format: binding
T16 construct: WDR9(2)
T16 sequence (Q9NSI6 1313-1418 limits assumed): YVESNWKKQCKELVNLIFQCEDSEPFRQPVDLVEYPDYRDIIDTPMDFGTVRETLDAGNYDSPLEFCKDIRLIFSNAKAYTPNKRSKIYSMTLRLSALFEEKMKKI

Row | SMILES | pKd (TRIM24(PHD Bromo.)) | pKd (FALZ) | pKd (CBP [4]) | pKd (EP300) | pKd (ATAD2B) | pKd (BRPF1) | pKd (TRIM33(PHD Bromo.)) | pKd (BRD9) | pKd (BAZ2A) | pKd (BRPF3) | pKd (BAZ2B) | pKd (ATAD2A) | pKd (WDR9(2)) | also measured
1 | CCOC(=O)[C@]1(C)N[C@H](c2ccc(-c3c(C)noc3C)cc2)[C@@H]2C(=O)N(CC)C(=O)[C@@H]21 [UMB17, (1R,3S,3aR,6aS)-ethyl 3-(4-(3,5-dimethylisoxazol-4-yl)phenyl)-5-ethyl-1-methyl-4,6-dioxooctahydropyrrolo[3,4-c]pyrrole-1-carboxylate] |  |  |  |  |  |  |  |  |  |  |  |  |  | IC50 (BRD4; BRD4--IC50 (μM), Table 5, biochemical): > 100 µM; IC50 (BRD4; BRD4 IC50 (μM), Table 2, AlphaScreen): 122 µM; EC50 [1]: 9.42 µM; pIC50 ([2]; Homo sapiens, NCI-H2171, Table 2, cellular, lung carcinoma cell line H2171): 4.26; cellular activity in H2171 ([2]; text b616): show cellular activity in H2171; pIC50 (CBP [3]): 4.52
2 | CCNC(=O)C[C@@H]1N=C(c2ccc(Cl)cc2)c2cc(OC)ccc2-n2c(C)nnc21 [I-BET, reference compound] | ≤ 4.40 | ≤ 4.40 | 4.12 | 4.15 | ≤ 4.40 | ≤ 4.40 | ≤ 4.40 | ≤ 4.40 | ≤ 4.40 | ≤ 4.40 | ≤ 4.40 | ≤ 4.40 | ≤ 4.40 | pKd (TAF1L(2)): ≤ 4.40; pKd (BRDT(1)): 6.80; pKd (TAF1(2)): ≤ 4.40; pKd (BRD1): ≤ 4.40; pKd (BRDT(2)): 7.35
3 | Cc1sc2c(c1C)C(c1ccc(Cl)cc1)=NC(CC(=O)OC(C)(C)C)c1nnc(C)n1-2 (stereo not shown) [JQ1, reference compound] | ≤ 4.40 | ≤ 4.40 | 4.62 | 4.29 | ≤ 4.40 | ≤ 4.40 | ≤ 4.40 | ≤ 4.40 | ≤ 4.40 | ≤ 4.40 | ≤ 4.40 | ≤ 4.40 | ≤ 4.40 | 

Reference: patent publication US9975896B2, “Inhibitors of transcription factors and uses thereof” (Dana-Farber Cancer Institute, Inc., priority 2013, dated 2018)
